In US10464922B2, “Metalloenzyme inhibitor compounds” (NQP 1598 LTD., priority 2015, dated 2019):
≈ marks a conversion by molar mass, not a printed value.

Key:
[1] = test system: A. fumigatus; assay: A. fumigatus MIC at 100% growth inhibition (CLSI M38-A2); assay type: cell-based, Aspergillus fumigatus; details: 100% growth inhibition, range tested 8-0.0078 μg/mL, values given as ranges; for MIC: Aspergillus fumigatus, read-out: Aspergillus fumigatus MIC
Protocol: A. fumigatus MICs were determined at 100% growth inhibition following CLSI guidelines at a concentration range of 8-0.0078 μg/mL (CLSI M38-A2).

[2] = test system: C. albicans (ATCC 90028); assay: Minimum inhibitory concentration, in vitro broth microdilution assay (CLSI M27-A2); assay type: cell-based, Candida albicans; details: ATCC 90028, about 50% growth reduction, 2 days at 36° C., range tested 8-0.0078 μg/mL, values given as ranges; for MIC: Candida albicans, ATCC90028, 48 h, read-out: Candida albicans MIC
Protocol: The antifungal potency of the test compounds was measured using the in vitro broth microdilution assay under assay conditions described by the Clinical and Laboratory Standards Institute (CLSI M27-A2). The test compounds were dissolved in 100% DMSO, suspended completely by sonication or vortexing, diluted by 2-fold serial titrations in the same vehicle, for a total of 11 test concentrations. A 4 μL aliquot of each dilution was added to 196 μL of RPMI-1640+MOPS medium seeded with the C. albicans (ATCC 90028) suspension in wells of a 96 well plate (fungal cell count: 1×10^3 to 1×10^4 colony forming units per mL). The final volume was 200 μL in each well and the final DMSO concentration was 2 percent. The inoculated plates were incubated for 2 days at 36° C. Following incubation, the test plates were visually examined and wells were scored for growth to define the minimum inhibitory concentration. […] Each test substance was evaluated in duplicate. Vehicle-control and an active reference agent (e.g., posaconazole) were used as blank and positive controls, respectively.

| SMILES | MIC [1] [µg/mL] | MIC [2] [µg/mL] | Aspergillus fumigatus MIC [1] [µg/mL] | Candida albicans MIC [2] [µg/mL] |
| --- | --- | --- | --- | --- |
| O[C@@](Cn1cnnn1)(c1ccc(F)cc1F)C(F)(F)c1ccc(-c2ccc(N3CCN(c4ccc(F)cc4)CC3)cc2)cn1 [Example 2, (R)-2-(2,4-difluorophenyl)-1,1-difluoro-1-(5-(4-(4-(4-fluorophenyl)piperazin-1-yl)phenyl)pyridin-2-yl)-3-(1H-tetrazol-1-yl) propan-2-ol] | 0.25 to 1 (≈ 0.411 to 1.65 µM) | 0.0078 to 0.01 (≈ 0.0128 to 0.0165 µM) |  |  |
| NC(c1ccc(N2CCN(c3ccc(-c4ccc(C(F)(F)[C@](O)(Cn5cnnn5)c5ccc(F)cc5F)nc4)cc3)CC2)cc1)C(F)(F)F (stereo partly drawn) [Example 4, (2R)-1-(5-(4-(4-(4-(1-amino-2,2,2-trifluoroethyl)phenyl)piperazin-1-yl)phenyl)pyridin-2-yl)-2-(2,4-difluorophenyl)-1,1-difluoro-3-(1H-tetrazol-1-yl) propan-2-ol] | 0.25 to 1 (≈ 0.364 to 1.46 µM) | 0.01 to 0.1 (≈ 0.0146 to 0.146 µM) |  |  |
| N#Cc1ccc(N2CCN(c3ccc(-c4ccc(C(F)(F)[C@](O)(Cn5cnnn5)c5ccc(F)cc5F)nc4)cc3)CC2)cc1F [Example 8, (R)-4-(4-(4-(6-(2-(2,4-difluorophenyl)-1,1-difluoro-2-hydroxy-3-(1H-tetrazol-1-yl)propyl)pyridin-3-yl)phenyl)piperazin-1-yl)-2-fluorobenzonitrile] | 0.25 to 1 (≈ 0.395 to 1.58 µM) | 0.0078 to 0.01 (≈ 0.0123 to 0.0158 µM) |  |  |
| N#Cc1ccc(N2CCN(c3ccc(-c4ccc(C(F)(F)[C@](O)(Cn5cnnn5)c5ccc(F)cc5F)nc4)cc3F)CC2)cc1 [Example 10, (R)-4-(4-(4-(6-(2-(2,4-difluorophenyl)-1,1-difluoro-2-hydroxy-3-(1H-tetrazol-1-yl)propyl)pyridin-3-yl)-2-fluorophenyl)piperazin-1-yl) benzonitrile] | > 8 | 0.0078 to 0.01 (≈ 0.0123 to 0.0158 µM) |  |  |
| OC(c1ccc(N2CCN(c3ccc(-c4ccc(C(F)(F)[C@](O)(Cn5cnnc5)c5ccc(F)cc5F)nc4)cc3)CC2)cc1)C(F)(F)F (stereo partly drawn) [Example 16, (2R)-2-(2,4-difluorophenyl)-1,1-difluoro-3-(4H-1,2,4-triazol-4-yl)-1-(5-(4-(4-(4-(2,2,2-trifluoro-1-hydroxyethyl)phenyl)piperazin-1-yl)phenyl)pyridin-2-yl) propan-2-ol] | 0.25 to 1 (≈ 0.364 to 1.46 µM) | 0.0078 to 0.01 (≈ 0.0114 to 0.0146 µM) |  |  |
| N#Cc1ccc(CN2CCN(c3ccc(-c4ccc(C(F)(F)[C@](O)(Cn5cnnn5)c5ccc(F)cc5F)nc4)cc3)CC2)cc1 [Example 17, (R)-4-((4-(4-(6-(2-(2,4-difluorophenyl)-1,1-difluoro-2-hydroxy-3-(1H-tetrazol-1-yl)propyl)pyridin-3-yl)phenyl)piperazin-1-yl)methyl) benzonitrile] | 1 to 4 (≈ 1.59 to 6.36 µM) | 0.0078 to 0.01 (≈ 0.0124 to 0.0159 µM) |  |  |
| N#Cc1ccc(C(=O)N2CCN(c3ccc(-c4ccc(C(F)(F)[C@](O)(Cn5cnnn5)c5ccc(F)cc5F)nc4)cc3)CC2)cc1 [Example 23, (R)-4-(4-(4-(6-(2-(2,4-difluorophenyl)-1,1-difluoro-2-hydroxy-3-(1H-tetrazol-1-yl)propyl)pyridin-3-yl)phenyl)piperazine-1-carbonyl) benzonitrile] | > 8 | 0.0078 to 0.01 (≈ 0.0121 to 0.0156 µM) |  |  |
| N#Cc1ccc(N2CCN(c3ccc(-c4ccc(C(F)(F)[C@](O)(Cn5cnnn5)c5ccc(F)cc5F)nc4)cc3)C(=O)C2)cc1 [Example 24, (R)-4-(4-(4-(6-(2-(2,4-difluorophenyl)-1,1-difluoro-2-hydroxy-3-(1H-tetrazol-1-yl)propyl)pyridin-3-yl)phenyl)-3-oxopiperazin-1-yl) benzonitrile] | > 8 | 0.0078 to 0.01 (≈ 0.0124 to 0.0159 µM) |  |  |
| N#Cc1ccc(N2CCN(c3ccc(-c4ccc(C(F)(F)[C@](O)(Cn5cnnn5)c5ccc(F)cc5F)nc4)cc3)CC2=O)cc1 [Example 25, (R)-4-(4-(4-(6-(2-(2,4-difluorophenyl)-1,1-difluoro-2-hydroxy-3-(1H-tetrazol-1-yl)propyl)pyridin-3-yl)phenyl)-2-oxopiperazin-1-yl) benzonitrile] | 0.25 to 1 (≈ 0.398 to 1.59 µM) | 0.0078 to 0.01 (≈ 0.0124 to 0.0159 µM) |  |  |

Continued, values first:

| MIC [1] [µg/mL] | MIC [2] [µg/mL] | Aspergillus fumigatus MIC [1] [µg/mL] | Candida albicans MIC [2] [µg/mL] | SMILES |
| --- | --- | --- | --- | --- |
| 0.25 to 1 (≈ 0.364 to 1.45 µM) | 0.0078 to 0.01 (≈ 0.0113 to 0.0145 µM) |  |  | OC(c1ccc(N2CCN(c3ccc(-c4ccc(C(F)(F)[C@](O)(Cn5cnnn5)c5ccc(F)cc5F)nc4)cc3)CC2)cc1)C(F)(F)F (stereo partly drawn) [Example 3, (2R)-2-(2,4-difluorophenyl)-1,1-difluoro-3-(1H-tetrazol-1-yl)-1-(5-(4-(4-(4-(2,2,2-trifluoro-1-hydroxyethyl)phenyl)piperazin-1-yl)phenyl)pyridin-2-yl) propan-2-ol] |
| 0.25 to 1 (≈ 0.354 to 1.42 µM) | 0.0078 to 0.01 (≈ 0.0111 to 0.0142 µM) |  |  | OC(c1ccc(N2CCN(c3ccc(-c4ccc(C(F)(F)[C@](O)(Cn5cnnn5)c5ccc(F)cc5F)nc4)cc3)CC2)cc1F)C(F)(F)F (stereo partly drawn) [Example 5, (2R)-2-(2,4-difluorophenyl)-1,1-difluoro-1-(5-(4-(4-(3-fluoro-4-(2,2,2-trifluoro-1-hydroxyethyl)phenyl)piperazin-1-yl)phenyl)pyridin-2-yl)-3-(1H-tetrazol-1-yl) propan-2-ol] |
|  |  | 0.25 to 1.0 | ≤0.0078 to 0.010 | OC(c1ccc(N2CCN(c3ccc(-c4ccc(C(F)(F)[C@](O)(Cn5cnnn5)c5ccc(F)cc5F)nc4)cc3)CC2)cn1)C(F)(F)F (stereo partly drawn) [Example 6, (2R)-2-(2,4-difluorophenyl)-1,1-difluoro-3-(1H-tetrazol-1-yl)-1-(5-(4-(4-(6-(2,2,2-trifluoro-1-hydroxyethyl)pyridin-3-yl)piperazin-1-yl)phenyl)pyridin-2-yl) propan-2-ol] |
| 0.25 to 1 (≈ 0.406 to 1.62 µM) | 0.0078 to 0.01 (≈ 0.0127 to 0.0162 µM) |  |  | N#Cc1ccc(N2CCN(c3ccc(-c4ccc(C(F)(F)[C@](O)(Cn5cnnn5)c5ccc(F)cc5F)nc4)cc3)CC2)cn1 [Example 7, (R)-5-(4-(4-(6-(2-(2,4-difluorophenyl)-1,1-difluoro-2-hydroxy-3-(1H-tetrazol-1-yl)propyl)pyridin-3-yl)phenyl)piperazin-1-yl) picolinonitrile] |
| > 8 | 0.0078 to 0.01 (≈ 0.012 to 0.0154 µM) |  |  | N#Cc1ccc(N2CCN(c3ccc(-c4ccc(C(F)(F)[C@](O)(Cn5cnnn5)c5ccc(F)cc5F)nc4)cc3F)CC2)c(F)c1 [Example 9, (R)-4-(4-(4-(6-(2-(2,4-difluorophenyl)-1,1-difluoro-2-hydroxy-3-(1H-tetrazol-1-yl)propyl)pyridin-3-yl)-2-fluorophenyl)piperazin-1-yl)-3-fluorobenzonitrile] |
| 0.25 to 1 (≈ 0.395 to 1.58 µM) | 0.0078 to 0.01 (≈ 0.0123 to 0.0158 µM) |  |  | N#Cc1ccc(N2CCN(c3ccc(-c4ccc(C(F)(F)[C@](O)(Cn5cnnn5)c5ccc(F)cc5F)nc4)cc3)CC2)c(F)c1 [Example 11, (R)-4-(4-(4-(6-(2-(2,4-difluorophenyl)-1,1-difluoro-2-hydroxy-3-(1H-tetrazol-1-yl)propyl)pyridin-3-yl)phenyl)piperazin-1-yl)-3-fluorobenzonitrile] |
|  | 0.0078 to 0.01 (≈ 0.0111 to 0.0142 µM) | 0.25 to 1.0 |  | OC(CC(F)(F)F)c1ccc(N2CCN(c3ccc(-c4ccc(C(F)(F)[C@](O)(Cn5cnnn5)c5ccc(F)cc5F)nc4)cc3)CC2)cn1 (stereo partly drawn) [Example 13, 1-(5-(4-(4-(6-((R)-2-(2,4-difluorophenyl)-1,1-difluoro-2-hydroxy-3-(1H-tetrazol-1-yl)propyl)pyridin-3-yl)phenyl)piperazin-1-yl)pyridin-2-yl)-3,3,3-trifluoropropan-1-ol] |
| > 8 | 0.01 to 0.1 (≈ 0.0165 to 0.165 µM) |  |  | Nc1ccc(N2CCN(c3ccc(-c4ccc(C(F)(F)[C@](O)(Cn5cnnn5)c5ccc(F)cc5F)nc4)cc3)CC2)cc1 [Example 14, (R)-1-(5-(4-(4-(4-aminophenyl)piperazin-1-yl)phenyl)pyridin-2-yl)-2-(2,4-difluorophenyl)-1,1-difluoro-3-(1H-tetrazol-1-yl) propan-2-ol] |
| > 8 | 0.0078 to 0.01 (≈ 0.0124 to 0.0159 µM) |  |  | N#Cc1ccc(N2CCN(Cc3ccc(-c4ccc(C(F)(F)[C@](O)(Cn5cnnn5)c5ccc(F)cc5F)nc4)cc3)CC2)cc1 [Example 18, (R)-4-(4-(4-(6-(2-(2,4-difluorophenyl)-1,1-difluoro-2-hydroxy-3-(1H-tetrazol-1-yl)propyl)pyridin-3-yl)benzyl)piperazin-1-yl) benzonitrile] |
| > 8 | 0.0078 to 0.01 (≈ 0.0121 to 0.0156 µM) |  |  | N#Cc1ccc(N2CCN(C(=O)c3ccc(-c4ccc(C(F)(F)[C@](O)(Cn5cnnn5)c5ccc(F)cc5F)nc4)cc3)CC2)cc1 [Example 19, (R)-4-(4-(4-(6-(2-(2,4-difluorophenyl)-1,1-difluoro-2-hydroxy-3-(1H-tetrazol-1-yl)propyl)pyridin-3-yl)benzoyl)piperazin-1-yl) benzonitrile] |
| 0.25 to 1 (≈ 0.341 to 1.36 µM) | 0.01 to 0.1 (≈ 0.0136 to 0.136 µM) |  |  | CC[C@H](NC(=O)Nc1ccc(N2CCN(c3ccc(-c4ccc(C(F)(F)[C@](O)(Cn5cnnn5)c5ccc(F)cc5F)nc4)cc3)CC2)cc1)[C@H](C)O [Example 21, 1-(4-(4-(4-(6-((R)-2-(2,4-difluorophenyl)-1,1-difluoro-2-hydroxy-3-(1H-tetrazol-1-yl)propyl)pyridin-3-yl)phenyl)piperazin-1-yl)phenyl)-3-((2S,3S)-2-hydroxypentan-3-yl) urea] |
| 0.25 to 1 (≈ 0.407 to 1.63 µM) | 0.0078 to 0.01 (≈ 0.0127 to 0.0163 µM) |  |  | N#Cc1ccc(N2CCC(c3ccc(-c4ccc(C(F)(F)[C@](O)(Cn5cnnn5)c5ccc(F)cc5F)nc4)cc3)CC2)cc1 [Example 22, (R)-4-(4-(4-(6-(2-(2,4-difluorophenyl)-1,1-difluoro-2-hydroxy-3-(1H-tetrazol-1-yl)propyl)pyridin-3-yl)phenyl)piperidin-1-yl) benzonitrile] |
